# Measured values published in US4686103A, “Method of managing cattle breeding herds” (Iowa State University Research Foundation, Inc., priority 1985, dated 1987).
# Read-outs that look alike come from different tables or passages of the source.
# Assays:
# primiparous beef heifers [1] = experiment: Relaxin effect on pelvic area and cervical dilatation in beef heifers; assay type: in vivo, cattle; conditions: for cervical dilatation increase: within 24 h after administration
# Description: (§1) Beginning on day 270 of gestation, the animals were assigned randomly to one of three treatment groups; gel vehicle-treated controls, Number (N)=16; single relaxin-treated heifers, N=14; and double relaxin-treated heifers, N=17. A daily blood sample (10 ml) was obtained from a jugular vein via a hypodermic needle (16 gauge, 3.8-cm length). The blood was divided equally into two culture tubes containing 0.1 ml of heparinized saline (10 U/ml), maintained on ice, and centrifuged (2,000×g; 4° C.); plasma was decanted into two culture tubes, frozen, and stored at -20° C. for radioimmunoassay of progesterone, estrone (E1), and 17β-estradiol (17β-E2. Pelvic and cervical measurements were obtained immediately after the blood collection except on the day of treatment and postcalving, when these measurements were obtained at 12-hour intervals for 60 hours. Relaxin (1 mg, 3,000 U/mg) was infused 4 cm into the cervical os by a sterile insemination pipette on day 278.
# Relaxin was extracted from ovaries of pregnant pigs and purified according to procedures described previously. See Schwabe et al., Rec. Prog. Horm. Res. (1978) 34:123. […]
# Dilatation of the cervix was measured intravaginally by using a specially designed stainless-steel probe. […] The tips of the rods were expanded by rotating the conical swivel to a uniform resistance against the cervical wall, then withdrawn, and the separation of the rods was measured.
# The area of the pelvic canal was calculated from determination of height and width by using a pelvimeter (Lane Manufacturing, Inc., Denver, Colo.) providing internal landmarks. Pelvic height was determined by measuring the linear distance from the midpoint of the dorsal surface of the symphysis pubis to the ventral surface of the prominent junction of the third and fourth sacral segments. Pelvic widths were determined by measuring the greatest linear distance between depression points in the shaft of the ilia at right angles to the vertical measurements. […]
# [2] = system: estrogen-primed immature Swiss-Webster mice; conditions: unit defined by interpubic ligament formation vs WL1000 standard; cited from earlier work
# cows = conditions: cited from earlier work
# primiparous beef heifers [3] = experiment: Relaxin-induced parturition in beef heifers, intracervical infusion on day 278; assay type: in vivo, cattle; conditions: for Day of calving: day of gestation, mean ± SE
# From the text: Forty-seven crossbred beef heifers approaching their first calving were used in this study. All heifers were bred by artificial insemination at estrus (day 0); pregnancy lasts approximately 283 days. Heifers calved at an average age of 25^± 1 months (± standard error, SE). Heifers were maintained under pasture conditions during the spring, summer and fall throughout gestation. Mixed silage (6.8 kg/animal/day) supplemented the hay fed during the winter. During the month before calving, corn (2/3 kg/animal/day) and mixed silage (9.0 kg/animal/day) were fed in addition to the ad libitum supply of hay.
# as §1
# Relaxin was extracted from ovaries of pregnant pigs and purified according to procedures described previously. See Schwabe et al., Rec. Prog. Horm. Res. (1978) 34:123. Purified porcine relaxin (3,000 U/mg) was suspended in 1 ml of vehicle prepared by mixing 0.01 molar phosphate buffer saline (M PBS), pH 7.0, and sterile gel (1 ml volume/volume "KY-4", a surgical lubricating jelly, Johnson and Johnson, Inc., New Brunswick, N.J.). Relaxin or gel vehicle was infused by means of a sterile insemination pipette after the cervical probe was withdrawn. A gloved hand was maintained in the reproductive tract of the heifer to guide the pipette through the cervical sphincter. Relaxin or the gel vehicle then was introduced and deposited 4 cm into the cervix.
# [4] = system: first-calf crossbred beef heifers; experiment: Induction of parturition with relaxin in combination with dexamethasone or cloprostenol; assay type: in vivo, cattle; conditions: for Interval between treatment and calving: mean ± SE
# From the text: Crossbred beef heifers were bred by artificial insemination and assigned randomly to treatment groups on day 268 of pregnancy. Blood samples were collected daily for radioimmunoassay of relaxin, progesterone, estrone and 17β-estradiol. Daily measures were obtained of pelvic dimensions and cervical dilation during the prepartum and postpartum periods. On day 272, heifers were given relaxin alone, or in combination with a prostaglandin (e.g., cloprostenol) or a glucocorticoid (e.g., dexamethasone).
# On day 272, 10 days before expected parturition, dexamethasone (20 mg) was administered intramuscularly (im) to 30 first-calf crossbred beef heifers. Relaxin (3,000 Units) was administered either at the same time or 24 h later either im or infused into the cervical os. The relaxin was dissolved in phosphate buffer saline (PBS) for im injection and in PBS plus a sterile gel for infusion in the cervical os. Controls received the dexamethasone im plus either 1 ml PBS im or 1 ml PBS-gel vehicle infused into the cervical os. There were 5 heifers assigned randomly to each treatment group.
# On day 272, cloprostenol (500 μg) was administered im to 30 first-calf crossbred beef heifers. Relaxin (3,000 Units) wad administered either at the same time or 24 h later either im or infused into the cervical os. The relaxin was dissolved in PBS for injection and in PBS plus sterile gel for infusion into the cervical os. Controls received the cloprostenol im plus either 1 ml PBS im or 1 ml PBS-gel vehicle infused into the cervical os. There were 5 heifers assigned randomly to each treatment group.
# [5] = system: first- and second-calf beef heifers; experiment: Induction of parturition with cloprostenol and relaxin or PBS im; assay type: in vivo, cattle; conditions: for Animals with placenta retained ≥24 h / Ease of calving: day 272; for Interval between treatment and calving: day 272, mean ± SE
# Description: The effect of cloprostenol and relaxin or PBS given im on induction or parturition was determined in 16 first-calf and 25 second-calf beef heifers. The 41 heifers were given cloprostenol im plus relaxin or PBS im on day 272 of pregnancy.
# [6] = relaxin twice (2 × 3,000 U, 12 h apart)
# [7] = overall: relaxin with Dex or Clo vs Dex or Clo plus PBS
# [8] = first-calf heifers treated day 272
# [9] = first-calf heifers treated day 272, relaxin 3,000 Units, dexamethasone 20 mg or cloprostenol 500 μg
compound,measurement,setting,value
relaxin,pelvic area,"primiparous beef heifers [1]; 12 h after treatment, all relaxin-treated heifers, P<0.05",marked increases
same,cervical dilatation increase,primiparous beef heifers [1]; relaxin once,526%
same,cervical dilatation increase,primiparous beef heifers [1]; relaxin twice,634%
same,relaxin potency,[2],3000 Units/mg
same,duration of pregnancy,"cows; 3000 U/mg, four days before expected parturition",did not significantly reduce
same,cervical dilation,"cows; cows, a few days before expected parturition",induce cervical dilation
same,duration of pregnancy,cows; heifers given relaxin intracervically on three consecutive days,Some shortening of pregnancy
same,incidence of retained placenta beyond 24 h postpartum,primiparous beef heifers [3]; all relaxin-treated heifers (once or twice),0 of 31
same,"Heifers calving within 48 h after treatment, %","primiparous beef heifers [3]; relaxin once (3,000 U)",45%
same,Mean interval of days between first treatment and calving,"primiparous beef heifers [3]; relaxin once (3,000 U)",2.5 days
same,Day of calving,"primiparous beef heifers [3]; relaxin once (3,000 U) into cervical os",280.5 ± 0.8
same,"Heifers calving within 48 h after treatment, No.","primiparous beef heifers [3]; relaxin once (3,000 U), 14 heifers",6
same,"calved earlier than PBS-gel vehicle-treated heifers, average",primiparous beef heifers [3]; relaxin twice,3.3 days
same,"Heifers calving within 48 h after treatment, %",primiparous beef heifers [3]; [6],88%
same,Mean interval of days between first treatment and calving,primiparous beef heifers [3]; [6],2.0 days
same,Day of calving,"primiparous beef heifers [3]; relaxin twice (2 × 3,000 U, 12 h apart) into cervical os",278.6 ± 1.2
same,"Heifers calving within 48 h after treatment, No.","primiparous beef heifers [3]; relaxin twice (2 × 3,000 U, 12 h apart), 17 heifers",15
same,heifers calving within 24 h after treatment,"primiparous beef heifers [3]; relaxin-treated group vs PBS-gel vehicle, P<0.001",more heifers calving
same,duration of gestation,"primiparous beef heifers [3]; relaxin-treated heifers vs PBS-gel vehicle controls, P<0.05",reduced
same,Animals with placenta retained ≥24 h,[4]; [7],23%
same,Ease of calving,[4]; [7],62%
same,Interval between treatment and calving,"[4]; overall: relaxin with Dex or Clo vs Dex or Clo plus PBS, 60 first-calf heifers",34 ± 2.8 h
same,Interval between treatment and calving,"[4]; overall: relaxin with Dex or Clo vs Dex or Clo plus PBS, 60 first-calf heifers, listed as relaxin",34 h
"O=C(O)CCC/C=C\CC1C(O)CC(O)C1/C=C/C(O)COc1cccc(Cl)c1 (stereo not shown) [PBS & Clo, cloprostenol]",Animals with placenta retained ≥24 h,[5]; 1st & 2nd calf heifers,93%
same,Ease of calving,[5]; 1st & 2nd calf heifers,63%
same,Interval between treatment and calving,[5]; 1st & 2nd calf heifers,45 ± 6 h
same,Animals with placenta retained ≥24 h,[5]; 1st calf heifers,80%
same,Ease of calving,[5]; 1st calf heifers,40%
same,Interval between treatment and calving,[5]; 1st calf heifers,46 ± 5 h
same,Animals with placenta retained ≥24 h,[5]; 2nd calf heifers,100%
same,Ease of calving,[5]; 2nd calf heifers,75%
same,Interval between treatment and calving,[5]; 2nd calf heifers,44 ± 7 h
same,Animals with placenta retained ≥24 h,[4]; [8],80%
same,Ease of calving,[4]; [8],40%
same,Interval between treatment and calving,[4]; [9],54 ± 3.4 h
same,Interval between treatment and calving,"[4]; first-calf heifers treated day 272, relaxin 3,000 Units, dexamethasone 20 mg or cloprostenol 500 μg, listed as cloprostenol plus PBS",54 h
"C[C@@H]1C[C@H]2[C@@H]3CCC4=CC(=O)C=C[C@]4(C)[C@@]3(F)[C@@H](O)C[C@]2(C)[C@@]1(O)C(=O)CO [PBS + Dex, dexamethasone]",Animals with placenta retained ≥24 h,[4]; [8],70%
same,Ease of calving,[4]; [8],30%
same,Interval between treatment and calving,[4]; [9],53 ± 2.6 h
same,Interval between treatment and calving,"[4]; first-calf heifers treated day 272, relaxin 3,000 Units, dexamethasone 20 mg or cloprostenol 500 μg, listed as dexamethasone plus PBS",53 h
